The values that follow come from patent US12600709B2, “Nonpeptide somatostatin type 5 receptor agonists and uses thereof” (Crinetics Pharmaceuticals, Inc., priority 2019, dated 2026).

For assay [1], the target named is T1, human somatostatin receptor subtype 2 (Homo sapiens, UniProt P30874).
T1 construct: expressed in transfected cells
Nature of the assay: cAMP assay for SST2R (inhibition of cAMP in CHO-K1 cells). It is filed as cell-based. The settings on record: Table B; inhibition of cAMP via human SST2 receptor; read-out: SST2 potency. In a few lines: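 CHO-K1 cells stably expressing human SSTR2, plated 4 days prior, treated 20 min at 37° C with 1.6 μM NKH477 plus compound dilutions in HBSS/HEPES pH 7.4/0.1% BSA/0.2 mM IBMX. Lysate cAMP measured by HTRF against standard curve; EC50 from concentration-response.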
For orientation: Changes in cAMP serve as a functional read-out for many G protein-coupled receptors.

Assay [2] concerns the target T2, human somatostatin receptor subtype 5 (Homo sapiens, UniProt P35346).
T2 construct: expressed in transfected cells
As to the kind of experiment: cAMP assay for SST5R (inhibition of cAMP in CHO-K1 cells). It counts as cell-based. The settings on record: for EC50: inhibition of cAMP via human SST5 receptor, read-out: SST5 potency; for Fold selectivity for SST5 vs SST2: class symbols, SST5 receptor over SST2 receptor. The method in brief:
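CHO-K1 cells stably expressing human SSTR5 were treated 20 min at 37 °C with compounds plus 1.6 μM NKH477 in HBSS, 0.5 mM HEPES pH 7.4, 0.1% BSA, 0.2 mM IBMX. Lysate cAMP measured by HTRF against a standard curve; EC50 from cAMP-versus-concentration plots.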

Read-outs that look alike come from different tables or passages of the source. Bounds are passed on as bounds.

T2 sequence (P35346 whole entry): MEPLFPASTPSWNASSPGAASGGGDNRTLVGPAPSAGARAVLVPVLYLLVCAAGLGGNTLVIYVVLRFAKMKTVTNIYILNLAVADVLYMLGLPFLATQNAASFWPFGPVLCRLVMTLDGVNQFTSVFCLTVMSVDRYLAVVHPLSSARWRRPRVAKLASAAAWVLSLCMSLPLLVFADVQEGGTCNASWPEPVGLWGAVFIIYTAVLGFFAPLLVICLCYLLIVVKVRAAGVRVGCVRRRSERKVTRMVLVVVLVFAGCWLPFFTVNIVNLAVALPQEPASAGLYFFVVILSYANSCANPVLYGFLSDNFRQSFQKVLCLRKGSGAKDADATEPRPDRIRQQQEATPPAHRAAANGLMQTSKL
T1 sequence (P30874 whole entry): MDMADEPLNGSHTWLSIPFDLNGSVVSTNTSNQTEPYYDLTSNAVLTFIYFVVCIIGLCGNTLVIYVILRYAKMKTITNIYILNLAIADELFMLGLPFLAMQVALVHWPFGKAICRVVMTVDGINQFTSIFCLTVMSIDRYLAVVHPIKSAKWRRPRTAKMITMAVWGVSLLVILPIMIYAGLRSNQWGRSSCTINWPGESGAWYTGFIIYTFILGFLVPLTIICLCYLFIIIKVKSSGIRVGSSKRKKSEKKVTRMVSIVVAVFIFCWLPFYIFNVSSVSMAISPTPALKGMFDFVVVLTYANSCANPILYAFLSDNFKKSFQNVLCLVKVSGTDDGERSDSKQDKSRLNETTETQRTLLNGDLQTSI

Regarding `COc1cc(C#N)cc(-c2c(C)ncc(C(=O)N[C@@H](C)C(F)(F)F)c2N2CC[C@](C)(N)C2)c1` [1-275, 4-[(3S)-3-amino-3-methylpyrrolidin-1-yl]-5-(3-cyano-5-methoxyphenyl)-6-methyl-N-[(2S)-1,1,1-trifluoropropan-2-yl]pyridine-3-carboxamide], the EC50 in assay [1] was 100 to 1000 nM; in assay [2] (Table A), less than 10 nM; in assay [2] (Table B), less than 10 nM. Moreover, in assay [2] (Table B), the “Fold selectivity for SST5 vs SST2” value is “+++ (+++=>500)”.
`Cc1ncc(C(=O)N[C@@H](C)C(F)(F)F)c(N2CC[C@H](N)C2)c1-c1cc(F)cc(Cl)c1` [1-276, 4-[(3S)-3-aminopyrrolidin-1-yl]-5-(3-chloro-5-fluorophenyl)-6-methyl-N-[(2S)-1,1,1-trifluoropropan-2-yl]pyridine-3-carboxamide]: the EC50 was 100 to 1000 nM in assay [1], less than 10 nM in assay [2] (Table A) and less than 10 nM in assay [2] (Table B). Also, the “Fold selectivity for SST5 vs SST2” value in assay [2] (Table B) is “++ (++=100 to 499)”.
Consider `Cc1ncc(C(=O)NC2CCC(F)(F)CC2)c(N2CC[C@H](N)C2)c1-c1cc(F)cc(Cl)c1` [1-277, 4-[(3S)-3-aminopyrrolidin-1-yl]-5-(3-chloro-5-fluorophenyl)-N-(4,4-difluorocyclohexyl)-6-methylpyridine-3-carboxamide], for which the EC50 was more than 1000 nM in assay [1], less than 10 nM in assay [2] (Table A) and less than 10 nM in assay [2] (Table B). Also, the “Fold selectivity for SST5 vs SST2” value in assay [2] (Table B) was “+++ (+++=>500)”.
`Cc1ncc(C(=O)NC23CC(F)(C2)C3)c(N2CC[C@H](N)C2)c1-c1cc(F)cc(Cl)c1` [1-278, 4-[(3S)-3-aminopyrrolidin-1-yl]-5-(3-chloro-5-fluorophenyl)-N-{3-fluorobicyclo[1.1.1]pentan-1-yl}-6-methylpyridine-3-carboxamide]: the EC50 is more than 1000 nM in assay [1], less than 10 nM in assay [2] (Table A) and less than 10 nM in assay [2] (Table B). For the same compound, the “Fold selectivity for SST5 vs SST2” value in assay [2] (Table B) is “+++ (+++=>500)”.
Regarding `Cc1ncc(C(=O)N[C@@H](C)C(F)(F)F)c(N2CC[C@](C)(N)C2)c1-c1ccc(F)c(F)c1` [1-279, 4-[(3S)-3-amino-3-methylpyrrolidin-1-yl]-5-(3,4-difluorophenyl)-6-methyl-N-[(2S)-1,1,1-trifluoropropan-2-yl]pyridine-3-carboxamide], the EC50 in assay [1] is 100 to 1000 nM; in assay [2] (Table A), less than 10 nM; in assay [2] (Table B), less than 10 nM. The “Fold selectivity for SST5 vs SST2” value in assay [2] (Table B) is listed as “+++ (+++=>500)”.
Turning to `COc1ncc(C(=O)N[C@@H](C)C2CC2)c(N2CC[C@H](N)C2)c1-c1cc(F)cc(Cl)c1` [1-282, 4-[(3S)-3-aminopyrrolidin-1-yl]-5-(3-chloro-5-fluorophenyl)-N-[(1S)-1-cyclopropylethyl]-6-methoxypyridine-3-carboxamide], the EC50 is 100 to 1000 nM in assay [1], less than 10 nM in assay [2] (Table A) and less than 10 nM in assay [2] (Table B). Further, in assay [2] (Table B), the “Fold selectivity for SST5 vs SST2” value is given as “+++ (+++=>500)”.
On to `COc1ncc(C(=O)N[C@@H](C)C(F)(F)F)c(N2CC[C@H](N)C2)c1-c1cc(F)cc(Cl)c1` [1-283, 4-[(3S)-3-aminopyrrolidin-1-yl]-5-(3-chloro-5-fluorophenyl)-6-methoxy-N-[(2S)-1,1,1-trifluoropropan-2-yl]pyridine-3-carboxamide], for which the EC50 was 100 to 1000 nM in assay [1], less than 10 nM in assay [2] (Table A) and less than 10 nM in assay [2] (Table B). Besides, the “Fold selectivity for SST5 vs SST2” value in assay [2] (Table B) was “+++ (+++=>500)”.
As to `COc1ncc(C(=O)NC2CCC(F)(F)CC2)c(N2CC[C@H](N)C2)c1-c1cc(F)cc(Cl)c1` [1-284, 4-[(3S)-3-aminopyrrolidin-1-yl]-5-(3-chloro-5-fluorophenyl)-N-(4,4-difluorocyclohexyl)-6-methoxypyridine-3-carboxamide], the results for the EC50 in assay [1], in assay [2] (Table A) and in assay [2] (Table B) were 100 to 1000 nM, less than 10 nM and less than 10 nM, respectively. Besides, the “Fold selectivity for SST5 vs SST2” value in assay [2] (Table B) is recorded as “+++ (+++=>500)”.
